The text below walks through data of patent publication US10259810B2, “N-sulfonylated pyrazolo[3,4-b]pyridin-6-carboxamides and method of use” (AbbVie S.à.r.l., priority 2015, dated 2019).

The target in test [1] is T1, ΔF508-CFTR (Homo sapiens, UniProt P13569, DEL508-508).
T1 construct: host or cells: CFBE41o-, doxycycline-inducible
The experiment in a line: CFTR cell surface levels using HRP-tagged ΔF508-CFTR expressing CFBE cells, intrinsic corrector capacity. Type of test: cell-based. Conditions: HRP-tagged ΔF508-CFTR expressing CFBE41o- cells, compound alone (intrinsic corrector capacity), 20 hours at 33° C.; for EC50: read-out: EC50. More on the design: % Activation: concentration or dose not given beside the values. From the text:
(§1) Measuring CFTR Cell Surface Levels Using HRP-Tagged ΔF508-CFTR Expressing CFBE Cells
(§2) The HRP-tagged ΔF508-CFTR cell assay measures the expression of CFTR-ΔF508 at the plasma membrane. CFTR-ΔF508 has a folding defect leading to absence of protein at the plasma membrane. This assay is used to evaluate the capacity of compounds to increase the expression of CFTR-ΔF508 at the plasma membrane. The CFTR-ΔF508 is tagged with HRP (horse radish peroxidase enzyme) within the ECL4 (Extracellular loop 4) of CFTR (Phuan, P.-W. et al. Synergy-based small-molecule screen using a human lung epithelial cell line yields ΔF508-CFTR correctors that augment VX-809 maximal efficacy. Mol. Pharmacol. 86, 42-51 (2014)). When HRP-tagged ΔF508-CFTR is present at the plasma membrane, the HRP enzyme activity can be measured. The amount of CFTR-ΔF508 that can be rescued to the plasma membrane is correlated with the amount of functional enzyme that can be measured.
(§3) There are several ways to measure the capacity of compounds to rescue CFTR-ΔF508 to the plasma membrane; either compounds are evaluated on their own and the impact on plasma membrane levels is measured or compounds are evaluated in combination with a co-corrector, i.e. a compound that rescues CFTR-ΔF508 to the plasma membrane but rescue can be enhanced by addition of compounds due to a complementary mode of action.
Activity of Compounds for their Intrinsic Corrector Capacity:
For this purpose doxycycline-inducible ΔF508-CFTR-HRP expressing CFBE4lo− cells (obtained from Gergely Lukacs, McGill University) were maintained in MEM (Gibco; 31095) supplemented with 10% fetal bovine serum (Hyclone; SV30160.03) under puromycin (3 μg/mL) and G418 selection (0.2 mg/mL). For compound testing, cells were seeded at 4000 cells/well in white 384-well plates (Greiner; 781080) in 50 μL medium containing 0.5 μg/mL doxycycline and incubated for 68 hours at 37° C., 5% CO2. On day four, […] compounds diluted in PBS were added to the plates at a final DMSO concentration of 0.1%. All compound plates contained negative controls (DMSO) and positive controls ([…] corrector, 3-[(2R,4R)-4-({[1-(2,2-difluoro-1,3-benzodioxol-5-yl)cyclopropyl]carbonyl}amino)-7-methoxy-3,4-dihydro-2H-chromen-2-yl]benzoic acid). Cell plates were incubated at 33° C., 5% CO2 for 20 hours. On day five, the cells were washed five times with phosphate-buffered saline, and HRP activity was assayed by the addition of 50 μL/well of HRP substrate (SuperSignal™ West Pico Chemiluminescent Substrate, Thermo Scientific; 34080). After incubation for 15 minutes in the dark, chemiluminescence was measured using a plate reader (EnVision®, Perkin Elmer). Raw data were normalized to percentage activity values using the equation: 100×(Sample−Negative control)/(Positive control−Negative Control).

For test [2], the target named is T1, ΔF508-CFTR. The experiment in a line: CFTR cell surface levels using HRP-tagged ΔF508-CFTR expressing CFBE cells, in the presence of a co-corrector. Format: cell-based. Conditions: HRP-tagged ΔF508-CFTR CFBE cells, in the presence of 3 μM co-corrector; for EC50: read-out: EC50.
Text: as §1, §2, §3
Activity of Compounds in Combination with Co-Corrector:
For this purpose doxycycline-inducible ΔF508-CFTR-HRP expressing CFBE4lo− cells (obtained from Gergely Lukacs, McGill University) were maintained in MEM (Minimum Essential Medium, Gibco; 31095) supplemented with 10% fetal bovine serum (Hyclone; SV30160.03) under puromycin (3 μg/mL) and G418 selection (0.2 mg/mL). For compound testing, cells were seeded at 4000 cells/well in white 384-well plates (Greiner; 781080) in 50 μL of medium containing 0.5 μg/mL doxycycline and incubated for 68 hours at 37° C., 5% CO2. On day four, 10 μL of test compounds diluted in PBS (phosphate buffered saline) were added to the plates at a final DMSO concentration of 0.1%. In order to measure compound synergy with a co-corrector, 3 μM co-corrector (3-[(2R,4R)-4-({[1-(2,2-difluoro-1,3-benzodioxol-5-yl)cyclopropyl]carbonyl}amino)-7-methoxy-3,4-dihydro-2H-chromen-2-yl]benzoic acid) was added along with test compounds. All compound plates contained negative controls (DMSO) and positive controls (3 μM co-corrector). Cell plates were incubated at 33° C., 5% CO2 for 20 hours. On day five, the cells were washed five times with phosphate-buffered saline, and HRP activity was assayed by the addition of 50 μL/well of HRP substrate (SuperSignal™ West Pico Chemiluminescent Substrate, Thermo Scientific; 34080). After incubation for 15 minutes in the dark, the chemiluminescence was measured using a plate reader (EnVision®, Perkin Elmer). Raw data were normalized to percentage activity values using the equation: 100×(Sample−Negative control)/(Positive control−Negative Control).

T1 sequence (P13569 with tags, fused parts or gaps DEL508-508): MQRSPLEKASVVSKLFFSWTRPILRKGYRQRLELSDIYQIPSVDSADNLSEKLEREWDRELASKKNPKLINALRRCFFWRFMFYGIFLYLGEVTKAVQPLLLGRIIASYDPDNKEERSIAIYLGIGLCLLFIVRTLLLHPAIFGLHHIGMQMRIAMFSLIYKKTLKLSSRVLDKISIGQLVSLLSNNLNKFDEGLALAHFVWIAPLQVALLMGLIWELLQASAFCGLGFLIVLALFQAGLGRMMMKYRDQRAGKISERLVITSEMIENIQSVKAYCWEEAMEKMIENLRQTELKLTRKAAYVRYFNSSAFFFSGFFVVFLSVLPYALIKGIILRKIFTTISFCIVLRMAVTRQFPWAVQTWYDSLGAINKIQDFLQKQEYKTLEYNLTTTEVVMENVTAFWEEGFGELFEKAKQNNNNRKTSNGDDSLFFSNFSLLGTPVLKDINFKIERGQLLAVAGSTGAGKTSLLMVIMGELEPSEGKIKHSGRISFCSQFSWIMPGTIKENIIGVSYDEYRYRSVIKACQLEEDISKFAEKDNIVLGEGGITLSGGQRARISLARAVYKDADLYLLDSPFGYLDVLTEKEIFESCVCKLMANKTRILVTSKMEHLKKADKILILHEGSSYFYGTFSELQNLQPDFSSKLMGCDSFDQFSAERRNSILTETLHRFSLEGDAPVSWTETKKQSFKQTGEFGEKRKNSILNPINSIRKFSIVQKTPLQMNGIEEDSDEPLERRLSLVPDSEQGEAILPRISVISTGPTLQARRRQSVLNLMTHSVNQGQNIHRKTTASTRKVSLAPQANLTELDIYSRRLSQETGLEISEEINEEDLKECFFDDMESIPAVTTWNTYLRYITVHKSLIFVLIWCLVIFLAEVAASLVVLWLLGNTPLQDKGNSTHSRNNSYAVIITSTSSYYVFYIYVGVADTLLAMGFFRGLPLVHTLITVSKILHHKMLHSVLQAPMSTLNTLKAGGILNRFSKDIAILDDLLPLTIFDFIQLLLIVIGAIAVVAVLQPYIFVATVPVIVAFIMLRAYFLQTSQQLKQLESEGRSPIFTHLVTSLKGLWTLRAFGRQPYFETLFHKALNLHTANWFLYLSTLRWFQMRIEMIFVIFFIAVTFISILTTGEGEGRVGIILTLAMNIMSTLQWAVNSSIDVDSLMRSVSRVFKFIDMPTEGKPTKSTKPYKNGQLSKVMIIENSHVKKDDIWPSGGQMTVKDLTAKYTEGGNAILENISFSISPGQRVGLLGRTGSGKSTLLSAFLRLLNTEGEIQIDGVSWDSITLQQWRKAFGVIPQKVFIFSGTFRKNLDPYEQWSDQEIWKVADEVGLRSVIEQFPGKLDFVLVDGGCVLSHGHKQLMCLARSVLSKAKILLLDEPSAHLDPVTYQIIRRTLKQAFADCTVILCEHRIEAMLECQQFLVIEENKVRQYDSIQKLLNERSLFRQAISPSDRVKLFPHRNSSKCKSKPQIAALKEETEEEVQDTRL

In the case of `Cc1nn(-c2ccccc2)c2nc(C(=O)NS(=O)(=O)C(F)(F)F)cc(-c3ccc(N4CCOCC4)cc3)c12` [Compound 3, 3-methyl-4-[4-(morpholin-4-yl)phenyl]-1-phenyl-N-(trifluoromethanesulfonyl)-1H-pyrazolo[3,4-b]pyridine-6-carboxamide], on ΔF508-CFTR [1], the “% Activation” value stood at 53.08% and the concentration giving a half-maximal response (EC50) is 3.34 µM.

On to `O=C(NS(=O)(=O)C1CC1)c1cc(OCC2CCOCC2)c2c(C3CCC3)nn(-c3ccccc3)c2n1` [Compound 333, 3-cyclobutyl-N-(cyclopropanesulfonyl)-4-[(oxan-4-yl)methoxy]-1-phenyl-1H-pyrazolo[3,4-b]pyridine-6-carboxamide], for which, on ΔF508-CFTR [1], the “% Activation” value is on record as 180% and the EC50 was found to be 0.0828 µM.

For the compound `CCS(=O)(=O)NC(=O)c1cc(OCC2CCOCC2)c2c(C3CCC3)nn(-c3ccccc3)c2n1` [Compound 335, 3-cyclobutyl-N-(ethanesulfonyl)-4-[(oxan-4-yl)methoxy]-1-phenyl-1H-pyrazolo[3,4-b]pyridine-6-carboxamide], on ΔF508-CFTR [1], the “% Activation” value worked out at 171.65% and the EC50 was 0.15 µM.

With `O=C(NS(=O)(=O)C1CCOC1)c1cc(N2CCN(c3ccncc3)CC2)c2c(C3CCC3)nn(C3CCCCC3)c2n1` (stereo not drawn) [Compound 468, 3-cyclobutyl-1-cyclohexyl-N-(oxolane-3-sulfonyl)-4-[4-(pyridin-4-yl)piperazin-1-yl]-1H-pyrazolo[3,4-b]pyridine-6-carboxamide], at ΔF508-CFTR [2], the “% Activation” value is reported as 443.05% and the EC50 was found to be 0.524 µM.

As for `CC(C)N1CCN(c2ccc(-c3cc(C(=O)NS(=O)(=O)N(C)C)nc4c3c(C3CCC3)nn4C3CCCCC3)cc2)CC1` [Compound 547, 3-cyclobutyl-1-cyclohexyl-N-(dimethylsulfamoyl)-4-{4-[4-(propan-2-yl)piperazin-1-yl]phenyl}-1H-pyrazolo[3,4-b]pyridine-6-carboxamide], at ΔF508-CFTR [2], the “% Activation” value was found to be 372.95% and the EC50 was found to be 0.349 µM.

For `CCOC(=O)N1CCC(NS(=O)(=O)NC(=O)c2cc(N3CCC(COC)CC3)c3c(C4CCC4)nn(-c4ccc(F)cc4)c3n2)CC1` [Compound 673, ethyl 4-[({3-cyclobutyl-1-(4-fluorophenyl)-4-[4-(methoxymethyl)piperidin-1-yl]-1H-pyrazolo[3,4-b]pyridine-6-carbonyl}sulfamoyl)amino]piperidine-1-carboxylate], at ΔF508-CFTR [1], the “% Activation” value is reported as 423.5% and the EC50 turned out to be 0.288 µM.

As for `COCC1CCN(c2cc(C(=O)NS(=O)(=O)NC3COC3)nc3c2c(C2CCC2)nn3-c2ccc(F)cc2)CC1` [Compound 674, 3-cyclobutyl-1-(4-fluorophenyl)-4-[4-(methoxymethyl)piperidin-1-yl]-N-[(oxetan-3-yl)sulfamoyl]-1H-pyrazolo[3,4-b]pyridine-6-carboxamide], on ΔF508-CFTR [1], the “% Activation” value is 389.5% and the EC50 is 0.156 µM.

For `COCC1CCN(c2cc(C(=O)NS(=O)(=O)NC3CCOCC3)nc3c2c(C2CCC2)nn3-c2ccc(F)cc2)CC1` [Compound 675, 3-cyclobutyl-1-(4-fluorophenyl)-4-[4-(methoxymethyl)piperidin-1-yl]-N-[(oxan-4-yl)sulfamoyl]-1H-pyrazolo[3,4-b]pyridine-6-carboxamide], on ΔF508-CFTR [1], the “% Activation” value stood at 398.1% and the EC50 came to 0.316 µM.

Turning to `COCC1CCN(c2cc(C(=O)NS(=O)(=O)N3CCC(N4CCOCC4)CC3)nc3c2c(C2CCC2)nn3-c2ccc(F)cc2)CC1` [Compound 676, 3-cyclobutyl-1-(4-fluorophenyl)-4-[4-(methoxymethyl)piperidin-1-yl]-N-[4-(morpholin-4-yl)piperidine-1-sulfonyl]-1H-pyrazolo[3,4-b]pyridine-6-carboxamide], on ΔF508-CFTR [1], the “% Activation” value is 251.1% and the EC50 turned out to be 0.251 µM.

Broadly, the EC50 is the concentration giving half of the maximal effect.
